# Test results published in US20060135443A1, “Use of Na*/K*-ATPase inhibitors and antagonists thereof” (Bionaut Pharmaceuticals, Inc., priority 2004, published 2006).
# “Also recorded” adds a separate entry of the source.
# Experiments:
# [1] = tested on: Caki-1 human renal cancer xenograft; assay: Caki-1 human renal cancer xenograft; assay type: in vivo, nude mice; conditions: for Final Tumor weight Day 22 (Mean): BNC1 20 mg/ml s.c. pump 0.5 μl/hr, n=10; for Final Tumor weight Day 22 (Mean) / % TGI: Cytoxan 100 or 300 ip; for % TGI: Day 22, BNC1 20 mg/ml s.c. C.I.
# Experimental: (§1) Female nude mice (nu/nu) between 5 and 6 weeks of age weighing approximately 20 g were implanted subcutaneously (s.c.) by trocar with fragments of human tumors harvested from s.c. grown tumors in nude mice hosts. When the tumors were approximately 60-75 mg in size (about 10-15 days following inoculation), the animals were pair-matched into treatment and control groups. Each group contains 8-10 mice, each of which was ear tagged and followed throughout the experiment.
# (§2) The administration of drugs or controls began the day the animals were pair-matched (Day 1). Pumps (Alzet® Model 2002) with a flow rate of 0.5 μl/hr were implanted s.c. between the shoulder blades of each mice. Mice were weighed and tumor measurements were obtained using calipers twice weekly, starting Day 1. These tumor measurements were converted to mg tumor weight by standard formula, (W^2×L)/2. The experiment is terminated when the control group tumor size reached an average of about 1 gram. Upon termination, the mice were weighed, sacrificed and their tumors excised. The tumors were weighed and the mean tumor weight per group was calculated.
# Cytoxan (q1d×1) was injected at 100 mg/kg (Cyt 100) or 300 mg/kg (Cyt 300).
# [2] = tested on: other receptors involved in blood pressure regulation or hormonal control; conditions: Ferrari et al. 1998; cited from earlier work
# [3] = biological target: purified sodium, potassium ATPase enzyme (Na-K ATPase); conditions: read-out: IC50, displaced ouabain from its binding sites; Ferrari et al. 1998; cited from earlier work
# [4] = tested on: A549 (NSCLC) Sentinel Line; assay: Sentinel Line reporter assay (FACS, FDG); assay type: cell-based, human; conditions: 40 hrs; for reporter activity / cell death: agent alone; for reporter activity: mitoxantrone 8 nM, paclitaxel 1.5 nM, carboplatin 15 μM, gemcitabine 2.5 nM, Iressa 4 μM; for cell death: Sentinel Lines
# Experimental: The expression level of beta-galactosidase gene in sentinel lines was determined by using a fluorescent substrate fluorescein di-B-D-Galactopyranside (FDG, Marker Gene Tech, #M0250) introduced into cells by hypotonic shock. Cleavage by beta-galactosidase results in the production of free fluorescein, which is unable to cross the plasma membrane and is trapped inside the beta-gal positive cells. Briefly, the cells to be analyzed are trypsinized, and resuspended in PBS containing 2 mM FDG (diluted from a 10 mM stock prepared in 8:1:1 mixture of water: ethanol: DMSO). The cells were then shocked for 4 minutes at 37° C. and transferred to FACS tubes containing cold 1×PBS on ice. Samples were kept on ice for 30 minutes and analyzed by FACS in FL1 channel.
# Sentinel Line cells with beta-galactosidase reporter gene were plated at 1×10^5 cells/10 cm dish. […] After 40 hrs, the cells were trypsinized and the expression level of reporter gene was determined by FDG loading.
# In experiments of FIG. 10, the A549 sentinel line was incubated with Gemcitabine in the presence or absence of indicated Bionaut compounds (including the cardiac glycoside compound BNC4) for 40 hrs. The reporter activity was measured by FACS analysis.
# [5] = tested on: Panc-1 human pancreatic tumors; assay: Panc-1 human pancreatic tumor xenograft; assay type: in vivo, nude mice; conditions: Gemcitabine 40 mg/kg q3d×4; for Final Tumor weight Day 25 (Mean): BNC1 20 mg/ml s.c. osmotic pump 0.5 μl/hr, n=8; for % TGI: Day 25, BNC1 20 mg/ml s.c. C.I.
# Experimental: as §1, §2
# The control animals received pumps containing vehicle (50% DMSO in DMEM). The mice treated with standard chemotherapy agent received intra-peritoneal injections of Gemcitabine at 40 mg/kg every 3 days for 4 treatments (q3d×4). Each data point represent average tumor weight (n=8) and error bars indicate SEM.
# Gem was also included in the experiment as a comparison.
# [6] = cited from earlier work; for max. plasma concentration: in vivo
# [7] = tested on: HIF-1α; assay: HIF-1α induced under normoxia by PHD inhibitor L-mimosone, Western blot; assay type: cell-based, human; conditions: Hep3B cells, 200 μM L-mimosone, 18 h
# Experimental: Abundance of HIF1α and β-actin was determined by western blotting.
# [8] = tested on: VEGF; assay: VEGF secretion in tumor cells; assay type: cell-based
# [9] = tested on: HIF-1α; assay: HIF-1α Western blot in tumor cells; assay type: cell-based, human; conditions: Hep3B, Caki-1 or Panc-1 cells under hypoxia
# Experimental: For HIF1-alpha Western blots, Hep3B cells were seeded in growth medium at a density of 7×10^6 cells per 100 mm dish. […] Samples were fractionated on 3-8% Tris-Acetate gel (Invitrogen NUPAGE system) by sodium dodecyl sulfate (SDS)-polyacrylamide gel electropherosis and transferred onto nitrocellulose membrane. […] Anti-Beta-actin monoclonal antibody (Abcam, ab6276-100) was used at a 1:5000 dilution with a 30-minute incubation at room temperature.
# The cells were lysed and proteins were resolved by SDS-PAGE and transferred to a nylon membrane.
# (§3) Thirty minutes prior to the termination of incubation period, 2,7-dichlorofluorescin diacetate (CFH-DA, […]) was added to the cells and incubated for the last 30 min at 37° C. The ROS levels were determined by FACS analysis.
# [10] = tested on: cancer cell lines; assay: proliferation of cancer cell lines; assay type: cell-based; conditions: for decrease of concentration effective for inhibiting proliferation of cancer cells: in combination with a steroid signal modulator (Casodex)
# Description: The concentration at which a cardiac glycoside is effective as part of an antiproliferative treatment may be further decreased by combination with an additional agent that negatively regulates HIF-responsive genes, such as a redox effector or a steroid signal modulator. […] Therefore, in certain embodiments, the invention provides combination therapies of cardiac glycosides with, for example, steroid signal modulators and/or redox effectors. Additionally, cardiac glycosides may be combined with radiation therapy, taking advantage of the radiosensitizing effect that many cardiac glycosides have.
# [11] = biological target: Na^+/K^+-ATPase α peptide isoforms; conditions: four α peptide isoforms, almost all mammalian species; cited from earlier work
# [12] = tested on: A549 human non-small-cell-lung carcinoma; assay: A549 human non-small-cell-lung carcinoma xenograft; assay type: in vivo, nude mice; conditions: for animals with tumor at the end of the experiment: 8 animals per group; for % Weight Change at Day 38 / Final Tumor weight Day 38 (Mean) / % TGI: Carboplatin 100 mg/kg ip qd×1; for % Weight Change at Day 38 / Final Tumor weight Day 38 (Mean): n=8; for % TGI: Day 38, BNC1 20 mg/ml s.c. C.I.
# Experimental: as §1, §2
# Carboplatin (q1d×1) was injected at 100 mg/kg (Carb).
# [13] = tested on: A549(ROS) tumor cell line; assay: ROS levels by FACS; assay type: cell-based, human; conditions: normoxia, 4 hrs
# Experimental: as §3
smiles,measurement,setting,value
O=P1(N(CCCl)CCCl)NCCCO1 (centres unmarked) [Cytoxan],Final Tumor weight Day 22 (Mean),[1],769 mg
same,Final Tumor weight Day 22 (Mean),[1]; listed as Cytoxan300,93.7 mg
same,% TGI,[1],54.70%
same,% TGI,[1]; listed as Cytoxan300,94.48%
"CC12CCC(O)CC1CCC1C2CCC2(C)C(O)(c3ccoc3)CCC12O (stereo not drawn) [PST 2238, 17beta-(3-furyl)-5beta-androstane-3beta, 14beta, 17alpha-triol]",interaction with other receptors,[2],without interacting
same,IC50,[3],1700 nM
COc1cc2ncnc(Nc3ccc(F)c(Cl)c3)c2cc1OCCCN1CCOCC1 [Iressa],reporter activity,[4],reduction
"O=C1c2c(O)ccc(O)c2C(=O)c2c(NCCNCCO)ccc(NCCNCCO)c21 [mitoxanthrone, mitoxantrone]",cell death,[4],increases
same,reporter activity,[4],increases
CC(=O)O[C@H]1C(=O)[C@@]2(C)[C@H]([C@H](OC(=O)c3ccccc3)[C@]3(O)C[C@H](OC(=O)[C@H](O)[C@@H](NC(=O)c4ccccc4)c4ccccc4)C(C)=C1C3(C)C)[C@]1(OC(C)=O)CO[C@@H]1C[C@@H]2O [paclitaxel],cell death,[4],increases
same,reporter activity,[4],increases
Nc1ccn([C@@H]2O[C@H](CO)[C@@H](O)C2(F)F)c(=O)n1 [Gemcitabine],Final Tumor weight Day 25 (Mean),[5],701.3 mg
same,% TGI,[5],37.40%
same,reporter activity,[4],elevated reporter activity
"C[C@@H]1O[C@@H](O[C@@H]2C=C3CC[C@@H]4[C@H](CC[C@]5(C)[C@@H](c6ccc(=O)oc6)CC[C@]45O)[C@@]3(C)CC2)[C@H](O)[C@H](O)[C@H]1O [BNC4, proscillaridin]",plasma half-life in human,[6]; according to the literature,about 40 hours
same,max. plasma concentration,[6],about 0.001 μg/mL
same,HIF-1α accumulation induced by L-mimosone,[7],blocks HIF-1α induction; also recorded: eliminated HIF-1α accumulation
same,secretion of the angiogenesis factor VEGF,[8],inhibits
same,Gemcitabine-induced stress response (reporter activity),[4]; incubated with Gemcitabine plus compound,significantly shift the reporter activity to the left
same,potency in inhibiting HIF-1α expression relative to BNC1,[9],about 10 times
same,decrease of concentration effective for inhibiting proliferation of cancer cells,[10],5 fold
same,IC50,"[10]; test system not named at the place, read-out: predicted IC50",2 to 8 ng/mL
"C[C@@H]1O[C@@H](O[C@H]2C[C@@H](O)[C@]3(CO)[C@H]4[C@H](O)C[C@]5(C)[C@@H](C6=CC(=O)OC6)CC[C@]5(O)[C@@H]4CC[C@]3(O)C2)[C@H](O)[C@H](O)[C@H]1O [BNC1, ouabain]",Kd,[11],≤ 1 nM
same,Final Tumor weight Day 25 (Mean),[5],200 mg
same,tumor growth (in words),[5]; BNC1 20 mg/ml s.c. pump,significantly reduce tumor growth
same,% TGI,[5],82.15%
same,max. plasma concentration,[6],about 0.03 μg/mL
same,animals with tumor at the end of the experiment,[12],none of the experimental animals showed any signs of tumor
same,anti-tumor activity (in words),"[12]; BNC1 20 mg/ml s.c. pump, Carboplatin 100 mg/kg",potent anti-tumor activity
same,% Weight Change at Day 38,[12]; BNC1 20 mg/ml s.c. pump,21%
same,Final Tumor weight Day 38 (Mean),[12]; BNC1 20 mg/ml s.c. pump,0.0 mg
same,% TGI,[12],100.00%
same,secretion of the angiogenesis factor VEGF,[8],inhibits
same,ROS production,[13],induces ROS production
same,decrease of concentration effective for inhibiting proliferation of cancer cells,[10],5 fold
same,Final Tumor weight Day 22 (Mean),[1],314.9 mg
same,anti-tumor activity (in words),"[1]; BNC1 20 mg/ml s.c. pump, Cytoxan 100 or 300 mg/kg",potent anti-tumor agent when used alone
same,% TGI,[1],81.45%
N.N.O=C([O-])C1(C(=O)[O-])CCC1.[Pt+2] [Carboplatin],animals with tumor at the end of the experiment,[12],all 8
same,% Weight Change at Day 38,[12]; BNC1 20 mg/ml s.c. pump,16%
same,Final Tumor weight Day 38 (Mean),[12]; BNC1 20 mg/ml s.c. pump,509.75 mg
same,% TGI,[12],39.50%
same,cell death,[4],increases
same,reporter activity,[4],increases
